Reference: US12558357B2, “Tetrahydroquinazoline derivatives as selective cytotoxic agents” (Merck Sharp & Dohme LLC, priority 2020, dated 2026)

What follows are molecules tested on PBMCs infected with VSV-G pseudotyped HIV virus (VSV-G/pNLG1-P2A-ΔEnv) (assay: cells). Settings: Homo sapiens, PBMC, read-out: EC50 (HIV-TACK cell kill activity).
Format: cell-based, human

`N#Cc1cc(=O)n(Cc2ccc3c(c2)NC(=O)N[C@]3(C#CC2CC2)C(F)(F)F)cn1` [Example 27, (S)-1-((4-(cyclopropylethynyl)-2-oxo-4-(trifluoromethyl)-1,2,3,4-tetrahydroquinazolin-7-yl)methyl)-6-oxo-1,6-dihydropyrimidine-4-carbonitrile] and `Nc1cc(=O)n(Cc2ccc3c(c2)NC(=O)N[C@]3(C#CC2CC2)C(F)(F)F)cn1` [Example 28, (S)-7-((4-amino-6-oxopyrimidin-1(6H)-yl)methyl)-4-(cyclopropylethynyl)-4-(trifluoromethyl)-3,4-dihydroquinazolin-2(1H)-one] are within 1.5-fold of each other in EC50: 190 nM for the first, 171 nM for the second.

Compared with `O=C1Nc2cc(Cn3nc(Cl)ccc3=O)ccc2[C@@](C#CC2CC2)(C(F)(F)F)N1` [Example 29, (S)-7-((3-chloro-6-oxopyridazin-1(6H)-yl)methyl)-4-(cyclopropylethynyl)-4-(trifluoromethyl)-3,4-dihydroquinazolin-2(1H)-one], `O=C1Nc2cc(Cn3cnc(Cl)cc3=O)ccc2[C@@](C#CC2CC2)(C(F)(F)F)N1` [Example 35, (S)-7-((4-chloro-6-oxopyrimidin-1(6H)-yl)methyl)-4-(cyclopropylethynyl)-4-(trifluoromethyl)-3,4-dihydroquinazolin-2(1H)-one] is 1.6-fold lower in EC50: 161 nM for the first, 101 nM for the second.

First: Cc1cnc(N)c(=O)n1Cc1ccc2c(c1)NC(=O)N[C@]2(C#CC1CC1)C(F)(F)F [Example 30, (S)-7-((3-amino-6-methyl-2-oxopyrazin-1(2H)-yl)methyl)-4-(cyclopropylethynyl)-4-(trifluoromethyl)-3,4-dihydroquinazolin-2(1H)-one]
Second: Nc1c(Cl)ncn(Cc2ccc3c(c2)NC(=O)N[C@]3(C#CC2CC2)C(F)(F)F)c1=O [Example 40, (S)-7-((5-amino-4-chloro-6-oxopyrimidin-1(6H)-yl)methyl)-4-(cyclopropylethynyl)-4-(trifluoromethyl)-3,4-dihydroquinazolin-2(1H)-one]
The EC50 of the first is 2.3-fold higher: 152 nM for the first, 65 nM for the second. The second is the more potent here.

`COCc1cc(=O)n(Cc2ccc3c(c2)NC(=O)N[C@]3(C#CC2CC2)C(F)(F)F)cn1` [Example 31, (S)-4-(cyclopropylethynyl)-7-((4-(methoxymethyl)-6-oxopyrimidin-1(6H)-yl)methyl)-4-(trifluoromethyl)-3,4-dihydroquinazolin-2(1H)-one] and `Cc1cc(=O)n(Cc2ccc3c(c2)NC(=O)N[C@]3(C#CC2CC2)C(F)(F)F)cn1` [Example 34, (S)-4-(cyclopropylethynyl)-7-((4-methyl-6-oxopyrimidin-1(6H)-yl)methyl)-4-(trifluoromethyl)-3,4-dihydroquinazolin-2(1H)-one] are within 1.5-fold of each other in EC50: 146 nM for the first, 117 nM for the second.

`Nc1c(C(F)(F)F)ncn(Cc2ccc3c(c2)NC(=O)N[C@]3(C#CC2CC2)C(F)(F)F)c1=O` [Example 33, (S)-7-((5-amino-6-oxo-4-(trifluoromethyl)pyrimidin-1(6H)-yl)methyl)-4-(cyclopropylethynyl)-4-(trifluoromethyl)-3,4-dihydroquinazolin-2(1H)-one] and `N#Cc1ncn(Cc2ccc3c(c2)NC(=O)N[C@]3(C#CC2CC2)C(F)(F)F)c(=O)c1N` [Example 57, (S)-5-amino-1-((4-(cyclopropylethynyl)-2-oxo-4-(trifluoromethyl)-1,2,3,4-tetrahydroquinazolin-7-yl)methyl)-6-oxo-1,6-dihydropyrimidine-4-carbonitrile] are within 1.5-fold of each other in EC50: 126 nM for the first, 127 nM for the second.

`O=C1Nc2cc(Cn3cnc(C(F)F)cc3=O)ccc2[C@@](C#CC2CC2)(C(F)(F)F)N1` [Example 36, (S)-4-(cyclopropylethynyl)-7-((4-(difluoromethyl)-6-oxopyrimidin-1(6H)-yl)methyl)-4-(trifluoromethyl)-3,4-dihydroquinazolin-2(1H)-one] and `Nc1cncn(Cc2ccc3c(c2)NC(=O)N[C@]3(C#CC2CC2)C(F)(F)F)c1=O` [Example 37, (S)-1-((4-(cyclopropylethynyl)-2-oxo-4-(trifluoromethyl)-1,2,3,4-tetrahydroquinazolin-7-yl)methyl)-6-oxo-1,6-dihydropyrimidin-5-aminium 2,2,2-trifluoroacetate] are within 1.5-fold of each other in EC50: 101 nM for the first, 89 nM for the second.

Going from `O=C1Nc2cc(Cn3cnc(C(F)(F)F)cc3=O)c(F)cc2[C@@](C#CC2CC2)(C(F)(F)F)N1` [Example 38, (S)-4-(cyclopropylethynyl)-6-fluoro-7-((6-oxo-4-(trifluoromethyl)pyrimidin-1(6H)-yl)methyl)-4-(trifluoromethyl)-3,4-dihydroquinazolin-2(1H)-one] to `O=C1Nc2cc(Cn3cnc(C(F)(F)F)cc3=O)c(Cl)cc2[C@@](C#CC2CC2)(C(F)(F)F)N1` [Example 42, (S)-6-chloro-4-(cyclopropylethynyl)-7-((6-oxo-4-(trifluoromethyl)pyrimidin-1(6H)-yl)methyl)-4-(trifluoromethyl)-3,4-dihydroquinazolin-2(1H)-one], the EC50 falls from 87 nM to 52 nM (1.7-fold). The second is the more potent here.

`Nc1cccn(Cc2cc3c(cc2F)[C@@](C#CC2CC2)(C(F)(F)F)NC(=O)N3)c1=O` [Example 39, (S)-7-((3-amino-2-oxopyridin-1(2H)-yl)methyl)-4-(cyclopropylethynyl)-6-fluoro-4-(trifluoromethyl)-3,4-dihydroquinazolin-2(1H)-one] and `Nc1cc(=O)n(Cc2cc3c(cc2F)[C@@](C#CC2CC2)(C(F)(F)F)NC(=O)N3)cn1` [Example 41, (S)-7-((4-amino-6-oxopyrimidin-1(6H)-yl)methyl)-4-(cyclopropylethynyl)-6-fluoro-4-(trifluoromethyl)-3,4-dihydroquinazolin-2(1H)-one] are within 1.5-fold of each other in EC50: 72 nM for the first, 60 nM for the second.

`Cc1cc(=O)n(Cc2cc3c(cc2F)[C@@](C#CC2CC2)(C(F)(F)F)NC(=O)N3)cn1` [Example 43, (S)-4-(cyclopropylethynyl)-6-fluoro-7-((4-methyl-6-oxopyrimidin-1(6H)-yl)methyl)-4-(trifluoromethyl)-3,4-dihydroquinazolin-2(1H)-one] and `O=C1Nc2cc(Cn3cnc(Cl)cc3=O)c(F)cc2[C@@](C#CC2CC2)(C(F)(F)F)N1` [Example 44, (S)-7-((4-chloro-6-oxopyrimidin-1(6H)-yl)methyl)-4-(cyclopropylethynyl)-6-fluoro-4-(trifluoromethyl)-3,4-dihydroquinazolin-2(1H)-one] are within 1.5-fold of each other in EC50: 50 nM for the first, 47 nM for the second.

First: Nc1nccn(Cc2cc3c(cc2Br)[C@@](C#CC2CC2)(C(F)(F)F)NC(=O)N3)c1=O [Example 45, (S)-7-((3-amino-2-oxopyrazin-1(2H)-yl)methyl)-6-bromo-4-(cyclopropylethynyl)-4-(trifluoromethyl)-3,4-dihydroquinazolin-2(1H)-one]
Second: CC(F)(F)[C@@]1(C#CC2CC2)NC(=O)Nc2cc(Cn3ccnc(N)c3=O)ccc21 [Example 53, (S)-7-((3-amino-2-oxopyrazin-1(2H)-yl)methyl)-4-(cyclopropylethynyl)-4-(1,1-difluoroethyl)-3,4-dihydroquinazolin-2(1H)-one]
The EC50 of the first is 2.8-fold higher: 50 nM for the first, 18 nM for the second.

First: CN1C(=O)Nc2cc(Cn3ccnc(N)c3=O)ccc2[C@@]1(C#CC1CC1)C(F)(F)F [Example 46, (S)-7-((3-amino-2-oxopyrazin-1(2H)-yl)methyl)-4-(cyclopropylethynyl)-3-methyl-4-(trifluoromethyl)-3,4-dihydroquinazolin-2(1H)-one]
Second: O=C1Nc2cc(Cn3ccc(=O)[nH]c3=O)ccc2[C@@](C#CC2CC2)(C(F)(F)F)N1 [Example 54, (S)-1-((4-(cyclopropylethynyl)-2-oxo-4-(trifluoromethyl)-1,2,3,4-tetrahydroquinazolin-7-yl)methyl)pyrimidine-2,4(1H,3H)-dione]
The EC50 of the first is 2.8-fold lower: 101 nM for the first, 284 nM for the second. The first is the more potent here.

`Cc1cn(Cc2ccc3c(c2)NC(=O)N[C@]3(C#CC2CC2)C(F)(F)F)c(=O)[nH]c1=O` [Example 47, (S)-1-((4-(cyclopropylethynyl)-2-oxo-4-(trifluoromethyl)-1,2,3,4-tetrahydroquinazolin-7-yl)methyl)-5-methylpyrimidine-2,4(1H,3H)-dione] and `CC(F)(F)[C@@]1(C#CC2CC2)NC(=O)Nc2cc(Cn3cnccc3=O)ccc21` [Example 55, (S)-4-(cyclopropylethynyl)-4-(1,1-difluoroethyl)-7-((6-oxopyrimidin-1(6H)-yl)methyl)-3,4-dihydroquinazolin-2(1H)-one] are within 1.5-fold of each other in EC50: 135 nM for the first, 96 nM for the second.

Going from `CC(F)(F)[C@@]1(C#CC2CC2)NC(=O)Nc2cc(Cn3cnccc3=O)c(Cl)cc21` [Example 48, (S)-6-chloro-4-(cyclopropylethynyl)-4-(1,1-difluoroethyl)-7-((6-oxopyrimidin-1(6H)-yl)methyl)-3,4-dihydroquinazolin-2(1H)-one] to `O=C1Nc2cc(Cn3cnccc3=O)c(Cl)cc2[C@@](C#CC2CC2)(C(F)(F)F)N1` [Example 56, (S)-6-chloro-4-(cyclopropylethynyl)-7-((6-oxopyrimidin-1(6H)-yl)methyl)-4-(trifluoromethyl)-3,4-dihydroquinazolin-2(1H)-one], the EC50 rises from 12 nM to 35 nM (2.9-fold).

First: O=C1Nc2c(cc(F)c(Cn3cnccc3=O)c2F)[C@@](C#CC2CC2)(C(F)(F)F)N1 [Example 49, (S)-4-(cyclopropylethynyl)-6,8-difluoro-7-((6-oxopyrimidin-1(6H)-yl)methyl)-4-(trifluoromethyl)-3,4-dihydroquinazolin-2(1H)-one]
Second: Cc1ccc(=O)n(Cc2cc3c(cc2F)[C@@](C#CC2CC2)(C(C)(F)F)NC(=O)N3)n1 [Example 51, (S)-4-(cyclopropylethynyl)-4-(1,1-difluoroethyl)-6-fluoro-7-((3-methyl-6-oxopyridazin-1(6H)-yl)methyl)-3,4-dihydroquinazolin-2(1H)-one]
The EC50 of the first is 1.8-fold higher: 96 nM for the first, 54 nM for the second. The second is the more potent here.

In the case of `CC(F)(F)[C@@]1(C#CC2CC2)NC(=O)Nc2cc(Cn3ncccc3=O)c(F)cc21` [Example 50, (S)-4-(cyclopropylethynyl)-4-(1,1-difluoroethyl)-6-fluoro-7-((6-oxopyridazin-1(6H)-yl)methyl)-3,4-dihydroquinazolin-2(1H)-one], the EC50 is reported as 32 nM.

Same assay, conditions: read-out: EC50 (HIV-TACK cell kill activity); 2,2,2-trifluoroacetate

Work on `Nc1cc(=O)n(Cc2ccc3c(c2)NC(=O)N[C@]3(C#CC2CC2)C(F)(F)F)cn1` [Example 32, (S)-1-((4-(cyclopropylethynyl)-2-oxo-4-(trifluoromethyl)-1,2,3,4-tetrahydroquinazolin-7-yl)methyl)-6-oxo-1,6-dihydropyrimidin-4-aminium 2,2,2-trifluoroacetate] yielded an EC50 of 141 nM.
